Tested on: 253994-281-T-J1-PDC KRAS-mutant spheroids with HUVEC/MSC, viability
Assay: Anticancer human tumor 253994-281-T-J1-PDC patient-derived colorectal carcinoma cell line growth inhibition [KRAS2]
Details: for viability, T/C: stronger effect = lower value; active = viability on the fitted dose curve at most 10% of control; inactive = the rest
In short: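 KRAS-mutant tumor cells were grown as spheroids with HUVEC endothelial cells and human MSCs as stroma. Targeted agents were tested alone and with KRAS pathway inhibitors. Doses started at or near clinical Cmax, or 10 microM, descending half-log.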

[1] = curve of first compound, second compound 0.1 µM
[2] = curve of first compound, second compound 0.316 µM
[3] = curve of first compound, second compound 1 µM
[4] = curve of first compound, second compound 3.16 µM
[5] = curve of first compound, second compound 10 µM
[6] = second compound 0.1 µM, first compound 0.0316 µM
[7] = second compound 0.1 µM, first compound 0.1 µM
[8] = second compound 0.1 µM, first compound 0.316 µM
[9] = second compound 0.1 µM, first compound 1 µM
[10] = second compound 0.1 µM, first compound 3.16 µM
[11] = second compound 0.1 µM, first compound 10 µM
[12] = second compound 0.316 µM, first compound 0.0316 µM
[13] = second compound 0.316 µM, first compound 0.1 µM
[14] = second compound 0.316 µM, first compound 0.316 µM
[15] = second compound 0.316 µM, first compound 1 µM
[16] = second compound 0.316 µM, first compound 3.16 µM
[17] = second compound 0.316 µM, first compound 10 µM
[18] = second compound 1 µM, first compound 0.0316 µM
[19] = second compound 1 µM, first compound 0.1 µM
[20] = second compound 1 µM, first compound 0.316 µM
[21] = second compound 1 µM, first compound 1 µM
[22] = second compound 1 µM, first compound 3.16 µM
[23] = second compound 1 µM, first compound 10 µM
[24] = second compound 3.16 µM, first compound 0.0316 µM
[25] = second compound 3.16 µM, first compound 0.1 µM
[26] = second compound 3.16 µM, first compound 0.316 µM
[27] = second compound 3.16 µM, first compound 1 µM
[28] = second compound 3.16 µM, first compound 3.16 µM
[29] = second compound 3.16 µM, first compound 10 µM
[30] = second compound 10 µM, first compound 0.0316 µM
[31] = second compound 10 µM, first compound 0.1 µM
[32] = second compound 10 µM, first compound 0.316 µM
[33] = second compound 10 µM, first compound 1 µM
[34] = second compound 10 µM, first compound 3.16 µM
[35] = second compound 10 µM, first compound 10 µM
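Note: spheroids exposed to agents for seven days before readout.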
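Throughout, for viability, T/C: percent of DMSO vehicle control viability.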

CC(C)NCC(C(=O)N1CCN(c2ncnc3c2C(C)CC3O)CC1)c1ccc(Cl)cc1 (stereo unspecified) + CC1OCC2(CCN(c3cnc(Sc4ccnc(N)c4Cl)c(N)n3)CC2)C1N
> 10 µM: IC50 [1] | IC50 [2] | IC50 [3] | IC50 [4]
< 0.0316 µM: IC50 [5]
inactive: viability, T/C [6] 107% | viability, T/C [7] 101% | viability, T/C [8] 99.8% | viability, T/C [9] 90.7% | viability, T/C [10] 85.2% | viability, T/C [11] 85.8% | viability, T/C [12] 95.1% | viability, T/C [13] 91% | viability, T/C [14] 86.4% | viability, T/C [15] 84.7% | viability, T/C [16] 101% | viability, T/C [17] 84.3% | viability, T/C [18] 84.7% | viability, T/C [19] 77.9% | viability, T/C [20] 72.9% | viability, T/C [21] 83.5% | viability, T/C [22] 83% | viability, T/C [23] 93% | viability, T/C [24] 57.8% | viability, T/C [25] 59.5% | viability, T/C [26] 63.9% | viability, T/C [27] 70.6% | viability, T/C [28] 77.7% | viability, T/C [29] 84.3% | viability, T/C [30] 36.3% | viability, T/C [31] 41% | viability, T/C [32] 41.1% | viability, T/C [33] 51.9% | viability, T/C [34] 58% | viability, T/C [35] 55%

CN(C)C/C=C/C(=O)Nc1cc2c(Nc3ccc(F)c(Cl)c3)ncnc2cc1O[C@H]1CCOC1
inactive: viability, T/C (compound 0.000316 µM) 96% [middle of 5 runs] | viability, T/C (compound 0.001 µM) 94.8% [middle of 5 runs] | viability, T/C (compound 0.00316 µM) 89.1% [middle of 5 runs] | viability, T/C (compound 0.01 µM) 84.3% [middle of 5 runs] | viability, T/C (compound 0.0316 µM) 74.8% [middle of 5 runs] | viability, T/C (compound 0.1 µM) 71.7% [middle of 5 runs]
> 0.1 µM: IC50 (curve of compound)

CC(C)NCC(C(=O)N1CCN(c2ncnc3c2C(C)CC3O)CC1)c1ccc(Cl)cc1 (stereo unspecified) + COc1cc2nc(C)nc(NC(C)c3cc(N)cc(C(F)(F)F)c3)c2cc1OC1CCOC1
> 10 µM: IC50 [1] | IC50 [2] | IC50 [3] | IC50 [4] | IC50 [5]
inactive: viability, T/C [6] 86.1% | viability, T/C [7] 97.9% | viability, T/C [8] 92.5% | viability, T/C [9] 94.6% | viability, T/C [10] 93% | viability, T/C [11] 97.1% | viability, T/C [12] 86.3% | viability, T/C [13] 85.7% | viability, T/C [14] 78.7% | viability, T/C [15] 87.6% | viability, T/C [16] 82% | viability, T/C [17] 90.2% | viability, T/C [18] 84.3% | viability, T/C [19] 83.4% | viability, T/C [20] 94.1% | viability, T/C [21] 86.2% | viability, T/C [22] 92.4% | viability, T/C [23] 96.4% | viability, T/C [24] 83.2% | viability, T/C [25] 87.4% | viability, T/C [26] 85.9% | viability, T/C [27] 94.2% | viability, T/C [28] 92.3% | viability, T/C [29] 74.7% | viability, T/C [30] 67.9% | viability, T/C [31] 79.8% | viability, T/C [32] 85.5% | viability, T/C [33] 79.5% | viability, T/C [34] 71.2% | viability, T/C [35] 83.7%

CC1COCCN1c1cc(-c2ccnn2C)c2ccnc(-c3ccn[nH]3)c2n1 (stereo unspecified)
inactive: viability, T/C (compound 0.01 µM) 97.3% [middle of 5 runs] | viability, T/C (compound 0.0316 µM) 88.2% [middle of 5 runs] | viability, T/C (compound 0.1 µM) 74.6% [middle of 5 runs] | viability, T/C (compound 0.316 µM) 61.8% [middle of 5 runs] | viability, T/C (compound 1 µM) 56.9% [middle of 5 runs] | viability, T/C (compound 3.16 µM) 59.6% [middle of 5 runs]
> 3.16 µM: IC50 (curve of compound)

COc1cc(Nc2ncc3c(n2)-c2ccc(Cl)cc2C(c2c(F)cccc2OC)=NC3)ccc1C(=O)O + COc1cc2nc(C)nc(NC(C)c3cc(N)cc(C(F)(F)F)c3)c2cc1OC1CCOC1
inactive: viability, T/C [6] 63.4% | viability, T/C [7] 29.7% | viability, T/C [8] 26.6% | viability, T/C [9] 35.2% | viability, T/C [10] 39.9% | viability, T/C [11] 38.6% | viability, T/C [12] 51.4% | viability, T/C [13] 26.8% | viability, T/C [14] 26.5% | viability, T/C [15] 33.1% | viability, T/C [16] 35.2% | viability, T/C [17] 33.6% | viability, T/C [18] 49% | viability, T/C [19] 34.3% | viability, T/C [20] 22.4% | viability, T/C [21] 27.5% | viability, T/C [22] 31% | viability, T/C [23] 34.5% | viability, T/C [24] 50.1% | viability, T/C [25] 30% | viability, T/C [26] 26% | viability, T/C [27] 29% | viability, T/C [28] 41.7% | viability, T/C [29] 45.1% | viability, T/C [30] 38.3% | viability, T/C [31] 31.4% | viability, T/C [32] 25.7% | viability, T/C [33] 31.6% | viability, T/C [34] 35.7% | viability, T/C [35] 29.1%
< 0.0316 µM: IC50 [1] | IC50 [2] | IC50 [3] | IC50 [4] | IC50 [5]

O=C(c1cc(Cc2n[nH]c(=O)c3ccccc23)ccc1F)N1CCN(C(=O)C2CC2)CC1
> 10 µM: IC50 (curve of compound)
inactive: viability, T/C (compound 0.0316 µM) 103% [middle of 5 runs] | viability, T/C (compound 0.1 µM) 93.8% [middle of 5 runs] | viability, T/C (compound 0.316 µM) 91.2% [middle of 5 runs] | viability, T/C (compound 1 µM) 95.1% [middle of 5 runs] | viability, T/C (compound 3.16 µM) 93.6% [middle of 5 runs] | viability, T/C (compound 10 µM) 89.7% [middle of 5 runs]

CC(C)n1nc(-c2ccc3oc(N)nc3c2)c2c(N)ncnc21 + COc1cc2nc(C)nc(NC(C)c3cc(N)cc(C(F)(F)F)c3)c2cc1OC1CCOC1
inactive: viability, T/C (second compound 0.1 µM, first compound 0.000316 µM) 82.7% | viability, T/C (second compound 0.1 µM, first compound 0.001 µM) 102% | viability, T/C (second compound 0.1 µM, first compound 0.00316 µM) 74.1% | viability, T/C (second compound 0.1 µM, first compound 0.01 µM) 87% | viability, T/C [6] 82.7% | viability, T/C [7] 56.8% | viability, T/C (second compound 0.316 µM, first compound 0.000316 µM) 86.4% | viability, T/C (second compound 0.316 µM, first compound 0.001 µM) 83.6% | viability, T/C (second compound 0.316 µM, first compound 0.00316 µM) 88% | viability, T/C (second compound 0.316 µM, first compound 0.01 µM) 79.3% | viability, T/C [12] 74.4% | viability, T/C [13] 56.2% | viability, T/C (second compound 1 µM, first compound 0.000316 µM) 90% | viability, T/C (second compound 1 µM, first compound 0.001 µM) 97.6% | viability, T/C (second compound 1 µM, first compound 0.00316 µM) 82% | viability, T/C (second compound 1 µM, first compound 0.01 µM) 82.7% | viability, T/C [18] 76.5% | viability, T/C [19] 51% | viability, T/C (second compound 3.16 µM, first compound 0.000316 µM) 81.9% | viability, T/C (second compound 3.16 µM, first compound 0.001 µM) 94.5% | viability, T/C (second compound 3.16 µM, first compound 0.00316 µM) 85.5% | viability, T/C (second compound 3.16 µM, first compound 0.01 µM) 82% | viability, T/C [24] 72.8% | viability, T/C [25] 57.2% | viability, T/C (second compound 10 µM, first compound 0.000316 µM) 78.5% | viability, T/C (second compound 10 µM, first compound 0.001 µM) 79.5% | viability, T/C (second compound 10 µM, first compound 0.00316 µM) 77.2% | viability, T/C (second compound 10 µM, first compound 0.01 µM) 79.5% | viability, T/C [30] 64.1% | viability, T/C [31] 47.6%
> 0.1 µM: IC50 [1] | IC50 [2] | IC50 [3] | IC50 [4]
0.0849 µM: IC50 [5]

COC(=O)c1ccc2c(C(=Nc3ccc(N(C)C(=O)CN4CCN(C)CC4)cc3)c3ccccc3)c(O)[nH]c2c1 + C=CC(=O)N1CCN(c2nc(OCC3CCCN3C)nc3c2CCN(c2cccc4cccc(C)c24)C3)CC1CC#N
4.29 µM: IC50 [1]
4.96 µM: IC50 (curve of first compound, second compound 0.0316 µM)
2.31 µM: IC50 [3]
inactive: viability, T/C (second compound 0.0316 µM, first compound 0.0316 µM) 101% | viability, T/C (second compound 0.0316 µM, first compound 0.1 µM) 112% | viability, T/C (second compound 0.0316 µM, first compound 0.316 µM) 98.7% | viability, T/C (second compound 0.0316 µM, first compound 1 µM) 96.4% | viability, T/C (second compound 0.0316 µM, first compound 3.16 µM) 76.3% | viability, T/C (second compound 0.0316 µM, first compound 10 µM) 9.63% | viability, T/C [6] 94.2% | viability, T/C [7] 88.3% | viability, T/C [8] 86.7% | viability, T/C [9] 75.5% | viability, T/C [10] 66.9% | viability, T/C [11] 13.4% | viability, T/C [12] 109% | viability, T/C [13] 85.9% | viability, T/C [14] 80.4% | viability, T/C [15] 72.5% | viability, T/C [16] 59.4% | viability, T/C [17] 15.7% | viability, T/C [18] 90.7% | viability, T/C [19] 85.8% | viability, T/C [20] 66.9% | viability, T/C [21] 72.7% | viability, T/C [22] 44%
3.34 µM: IC50 [2]
active: viability, T/C [23] 0.21% | viability, T/C [24] 5.16% | viability, T/C [25] 10.4% | viability, T/C [26] 18.4% | viability, T/C [27] 9.87% | viability, T/C [28] 0.17% | viability, T/C [29] 0.22%
< 0.0316 µM: IC50 [4]
